{
  "source": "patent US11878001B2",
  "about": "“Use of mavoglurant in the reduction of cocaine use or in preventing relapse into cocaine use” (NOVARTIS AG, priority 2017, dated 2024)",
  "key": {"[1]": {"molecular_target": "norepinephrine transporter (Homo sapiens, UniProt P23975)", "sequence (P23975 whole entry, species assumed)": "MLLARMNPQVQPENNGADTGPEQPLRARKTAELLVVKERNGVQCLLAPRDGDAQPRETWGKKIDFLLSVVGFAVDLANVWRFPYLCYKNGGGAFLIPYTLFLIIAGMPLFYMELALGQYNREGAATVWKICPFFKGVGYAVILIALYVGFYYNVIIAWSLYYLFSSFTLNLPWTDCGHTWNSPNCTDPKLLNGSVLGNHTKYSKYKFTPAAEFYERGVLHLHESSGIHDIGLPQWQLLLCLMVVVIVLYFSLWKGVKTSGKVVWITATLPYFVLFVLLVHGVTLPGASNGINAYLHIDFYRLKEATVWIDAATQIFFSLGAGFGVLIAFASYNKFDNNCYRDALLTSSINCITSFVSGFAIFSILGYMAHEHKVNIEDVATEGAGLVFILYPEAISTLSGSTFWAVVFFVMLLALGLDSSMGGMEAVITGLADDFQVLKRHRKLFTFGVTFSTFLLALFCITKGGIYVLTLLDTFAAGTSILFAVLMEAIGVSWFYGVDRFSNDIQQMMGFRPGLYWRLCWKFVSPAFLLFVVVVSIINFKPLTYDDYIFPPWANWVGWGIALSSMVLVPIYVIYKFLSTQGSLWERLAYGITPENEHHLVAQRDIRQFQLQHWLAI", "conditions": "cited from earlier work"}, "monoamine oxidase": {"tested_on": "monoamine oxidase", "conditions": "cited from earlier work"}, "mice": {"tested_on": "mice", "conditions": "cited from earlier work"}, "rats": {"tested_on": "rats", "conditions": "cited from earlier work"}, "NMDA receptors": {"tested_on": "NMDA receptors", "conditions": "cited from earlier work"}, "cytochrome P450 1A2": {"molecular_target": "T1, cytochrome P450 1A2 (Homo sapiens, UniProt P05177)", "T1 sequence (P05177 1-516)": "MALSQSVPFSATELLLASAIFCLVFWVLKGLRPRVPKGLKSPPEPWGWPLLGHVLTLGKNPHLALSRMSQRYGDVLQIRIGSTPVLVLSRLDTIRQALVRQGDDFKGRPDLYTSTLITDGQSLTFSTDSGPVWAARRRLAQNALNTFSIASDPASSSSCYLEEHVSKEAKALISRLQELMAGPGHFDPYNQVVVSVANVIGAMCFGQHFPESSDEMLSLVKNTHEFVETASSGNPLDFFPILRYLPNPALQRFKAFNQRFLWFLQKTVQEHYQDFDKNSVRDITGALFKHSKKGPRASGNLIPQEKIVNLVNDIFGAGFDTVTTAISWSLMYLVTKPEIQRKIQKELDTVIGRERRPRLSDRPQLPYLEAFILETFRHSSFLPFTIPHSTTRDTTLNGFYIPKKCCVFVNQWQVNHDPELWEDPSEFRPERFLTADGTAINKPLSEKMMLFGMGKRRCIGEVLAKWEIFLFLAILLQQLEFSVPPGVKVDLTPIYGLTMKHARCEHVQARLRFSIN", "conditions": "cited from earlier work"}, "[2]": {"conditions": "in vivo; cited from earlier work"}, "Sprague-Dawley rats [3]": {"tested_on": "Sprague-Dawley rats", "assay": "Acute effects on intravenous cocaine self-administration (FR5) in rats, Phase I", "assay_type": "in vivo", "conditions": "cocaine 0.3 mg/kg/infusion", "text": "(§1) Evaluation of the Effects of Mavoglurant on Cocaine Dependence and Cocaine Reinstatement Using the Intravenous Self-Administration Model in Sprague-Dawley Rats\n(§2) Adult male Sprague-Dawley rats (300-325 g at arrival) from Harlan Laboratory (Indiana, USA) were used. Upon arrival, the rats were assigned a unique identification numbers (tail marks). Animals were single housed in suspended polycarbonate rat cages with filter tops, and were acclimated for up to 7 days. All rats were examined, handled, and weighed prior to initiation of the study to assure adequate health and suitability. During the course of the study, 12 h/12 h light/dark cycles were maintained. The room temperature was 21-23° C. with a relative humidity maintained at 30-70%. Water was provided ad libitum for the duration of the study.\nCocaine Hydrochloride (Sigma-Aldrich, USA) (1.05 mg/ml which is equivalent to 0.3 mg/kg/infusion under 350 g body weight and 0.1 ml/infusion rate) was dissolved in saline (0.9% NaCl). The formulation was a clear solution.\n(§3) Mavoglurant (free form) was formulated in 0.5% methylcellulose (MC) at 1, 3 and 10 mg/kg and administered orally at a dose volume of 1 ml/kg 60 minutes prior to test.\nIntravenous drug self-administration took place in sound attenuated operant chambers equipped with an exhaust fan (Med Associates, VT). Each chamber contained two levers situated on one wall of the chamber. Only one of the two levers was active (located on the left side). Pressing the active lever caused delivery of reinforcer (food or cocaine). […] A stimulus light was located above each lever, but only the one above the active lever was on during the timeout period (defined below). A house light (providing illumination) was located at the top of opposite wall. For food training (see details below), a pellet receptacle was situated between the two levers for delivery of food pellets (Bio-Serv's Dustless Precision Pellets #F0165, 45 mg). […]"}, "Sprague-Dawley rats [4]": {"tested_on": "Sprague-Dawley rats", "assay": "Cue-induced reinstatement of the cocaine self-administration response after extinction, Phase II", "assay_type": "in vivo", "conditions": "10 mg/kg PO, 1 hour prior to test; after 9-day extinction; N=14-15 per group", "text": "as §1, §2, §3\nIntravenous drug self-administration took place in sound attenuated operant chambers equipped with an exhaust fan (Med Associates, VT). Each chamber contained two levers situated on one wall of the chamber. […]\nDuring the reinstatement session, which occurred one day after the last extinction session, rats were presented the cues (flash+tone) at the beginning of the session and their lever-press responses recorded. […]"}},
  "note": "Entries after “also recorded” stand apart in the source; their conditions may differ.",
  "data": [
    {"smiles": "Cc1cccc(C#Cc2ccccc2)n1", "note": "[MPEP, 2-methyl-6-(2-phenylethynyl)pyridine]", "values": [
      {"measurement": "off-target effects on the norepinephrine transporter", "setting": "[1]", "value": "off-target effects"},
      {"measurement": "off-target effects on monoamine oxidase", "setting": "monoamine oxidase", "value": "off-target effects"},
      {"measurement": "cocaine self-administration", "setting": "mice", "value": "decreased cocaine self-administration"},
      {"measurement": "cocaine self-administration", "setting": "rats", "value": "decreased cocaine self-administration"},
      {"measurement": "off-target effects on NMDA receptors", "setting": "NMDA receptors", "value": "off-target effects"}
    ]},
    {"smiles": "Cc1nc(C#Cc2cccnc2)cs1", "note": "[MTEP, 3-[2-(2-methylthiazol-4-yl)ethynyl]pyridine]", "values": [
      {"measurement": "inhibition of cytochrome P450 1A2", "setting": "cytochrome P450 1A2", "value": "potent inhibition"},
      {"measurement": "cocaine self-administration", "setting": "mice", "value": "decreased cocaine self-administration"},
      {"measurement": "cocaine self-administration", "setting": "rats", "value": "decreased cocaine self-administration"}
    ]},
    {"smiles": "CNCCCN1c2ccccc2CCc2ccccc21", "note": "[desipramine]", "values": [
      {"measurement": "cocaine craving", "setting": "[2]", "value": "reduce"},
      {"measurement": "cocaine use", "setting": "[2]", "value": "reduce"},
      {"measurement": "symptoms of cocaine withdrawal", "setting": "[2]", "value": "alleviate symptoms of cocaine withdrawal"}
    ]},
    {"smiles": "COC(=O)N1CC[C@@H]2[C@H]1CCC[C@@]2(O)C#Cc1cccc(C)c1", "note": "[mavoglurant, (−)-(3aR,4S,7aR)-4-Hydroxy-4-m-tolylethynyl-octahydro-indole-1-carboxylic acid methyl ester]", "values": [
      {"measurement": "responding on the active lever (cocaine self-administration)", "setting": "Sprague-Dawley rats [3]; 3 mg/kg orally, 60 minutes prior to test, post hoc p<0.10, N=12", "value": "tended to reduce responding on the active lever"},
      {"measurement": "responding on the active lever (cocaine self-administration)", "setting": "Sprague-Dawley rats [3]; 10 mg/kg PO, 1 hour prior to test, post hoc p<0.001, N=12", "value": "significantly reduced responding"},
      {"measurement": "responding on the active lever (cocaine self-administration)", "setting": "Sprague-Dawley rats [3]; 10 mg/kg PO, 1 hour prior to test, post hoc p<0.001, N=12, listed as Mavoglurant", "value": "significantly reduced cocaine self-administration"},
      {"measurement": "cue-induced reinstatement of the self-administration response", "setting": "Sprague-Dawley rats [4]", "value": "cue-induced reinstatement was suppressed; also recorded: completely prevented cue-induced reinstatement"}
    ]}
  ]
}
